Where a SMILES comes first, the peptide text is derived from it. Bridges are numbered along the chain shown (N, C = ends). [ ]: non-standard residue; d: D form. The star is where a group is joined. X1 = NC[C@@H](CC(=O)*)c1cccc(Cl)c1; Dab = NCC[C@H](N)C(=O)O; Dap = NC[C@H](N)C(=O)O
What was measured:
[1] = system: E. coli ATCC 25922 (SEN) and E. coli NCTC13846 (MDR); experiment: Adaptive laboratory evolution (ALE), relative MIC of evolved lines; format: cell-based, Escherichia coli
How it was run: (§1)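 Ten parallel populations per antibiotic–ancestor pair were evolved in MHB at 37 °C, starting near 50% growth-inhibiting drug. Every 72 h they were passaged into 0.5–2.5× increasing concentrations, keeping the highest-drug well with OD600 > 0.2.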

[2] = system: A. baumannii ATCC 17978 (SEN) and A. baumannii ATCC BAA-1605 (MDR); experiment: as above; format: cell-based, Acinetobacter baumannii; settings: AB-MDR (ATCC BAA 1605), evolved vs ancestor
How it was run: as §1

CC(C)C[C@@H]1NC(=O)[C@@H](Cc2ccccc2)NC(=O)[C@H](CCN)NC(=O)[C@@H](NC(=O)[C@H](CN)NC(=O)[C@@H](NC(=O)C[C@H](CN)c2cccc(Cl)c2)[C@@H](C)O)CCNC(=O)[C@H]([C@@H](C)O)NC(=O)[C@H](CCN)NC(=O)[C@H](CCN)NC1=O [SPR206] (X1-T[Dap][Dab][Dab][dF]L[Dab][Dab]T; lactam 3-C (inferred); N-terminus assumed)
512: Relative MIC ([1]; ALE, E. coli ATCC 25922 (EC-SEN), evolved line 1) | Relative MIC ([1]; ALE, E. coli ATCC 25922 (EC-SEN), evolved line 3) | Relative MIC ([1]; ALE, E. coli ATCC 25922 (EC-SEN), evolved line 6) | Relative MIC ([1]; EC-SEN (ATCC 25922), evolved line 1, evolved vs ancestor) | Relative MIC ([1]; EC-SEN (ATCC 25922), evolved line 3, evolved vs ancestor) | Relative MIC ([1]; EC-SEN (ATCC 25922), evolved line 6, evolved vs ancestor) | Relative MIC ([1]; Escherichia coli ATCC 25922 (EC-SEN), evolved line 1) | Relative MIC ([1]; Escherichia coli ATCC 25922 (EC-SEN), evolved line 3) | Relative MIC ([1]; Escherichia coli ATCC 25922 (EC-SEN), evolved line 6) | Relative MIC ([2]; evolved line 3)
16: Relative MIC ([1]; ALE, E. coli ATCC 25922 (EC-SEN), evolved line 10) | Relative MIC ([1]; ALE, E. coli NCTC 13846 (EC-MDR), evolved line 2) | Relative MIC ([1]; ALE, E. coli NCTC 13846 (EC-MDR), evolved line 3) | Relative MIC ([1]; ALE, E. coli NCTC 13846 (EC-MDR), evolved line 4) | Relative MIC ([1]; ALE, E. coli NCTC 13846 (EC-MDR), evolved line 8) | Relative MIC ([1]; ALE, E. coli NCTC 13846 (EC-MDR), evolved line 9) | Relative MIC ([1]; EC-MDR (NCTC 13846), evolved line 2, evolved vs ancestor) | Relative MIC ([1]; EC-MDR (NCTC 13846), evolved line 3, evolved vs ancestor) | Relative MIC ([1]; EC-MDR (NCTC 13846), evolved line 4, evolved vs ancestor) | Relative MIC ([1]; EC-MDR (NCTC 13846), evolved line 8, evolved vs ancestor) | Relative MIC ([1]; EC-MDR (NCTC 13846), evolved line 9, evolved vs ancestor) | Relative MIC ([1]; EC-SEN (ATCC 25922), evolved line 10, evolved vs ancestor) | Relative MIC ([1]; Escherichia coli ATCC 25922 (EC-SEN), evolved line 10) | Relative MIC ([1]; Escherichia coli NCTC 13846 (EC-MDR), evolved line 2) | Relative MIC ([1]; Escherichia coli NCTC 13846 (EC-MDR), evolved line 3) | Relative MIC ([1]; Escherichia coli NCTC 13846 (EC-MDR), evolved line 4) | Relative MIC ([1]; Escherichia coli NCTC 13846 (EC-MDR), evolved line 8) | Relative MIC ([1]; Escherichia coli NCTC 13846 (EC-MDR), evolved line 9)
32 µg/mL: MIC of evolved line ([1]; EC-MDR (NCTC 13846), evolved line 1) | MIC of evolved line ([1]; EC-MDR (NCTC 13846), evolved line 7) | MIC of evolved line ([1]; EC-MDR NCTC 13846, evolved line 6) | MIC of evolved line ([1]; EC-SEN (ATCC 25922), evolved line 5) | MIC of evolved line ([1]; EC-SEN (ATCC 25922), evolved line 8)
8: Relative MIC ([1]; ALE, E. coli NCTC 13846 (EC-MDR), evolved line 1) | Relative MIC ([1]; ALE, E. coli NCTC 13846 (EC-MDR), evolved line 6) | Relative MIC ([1]; ALE, E. coli NCTC 13846 (EC-MDR), evolved line 7) | Relative MIC ([1]; EC-MDR (NCTC 13846), evolved line 1, evolved vs ancestor) | Relative MIC ([1]; EC-MDR (NCTC 13846), evolved line 6, evolved vs ancestor) | Relative MIC ([1]; EC-MDR (NCTC 13846), evolved line 7, evolved vs ancestor) | Relative MIC ([1]; Escherichia coli NCTC 13846 (EC-MDR), evolved line 1) | Relative MIC ([1]; Escherichia coli NCTC 13846 (EC-MDR), evolved line 6) | Relative MIC ([1]; Escherichia coli NCTC 13846 (EC-MDR), evolved line 7)
2.709 log10: Relative MIC (log10) ([1]; EC-SEN (Escherichia coli ATCC 25922), evolved line 3) | Relative MIC (log10) ([1]; EC-SEN (Escherichia coli ATCC 25922), evolved line 6) | Relative MIC (log10) ([1]; EC-SEN, Escherichia coli ATCC 25922, evolved line 1)
8192: Relative MIC ([2]; evolved line 2) | Relative MIC ([2]; evolved line 5) | Relative MIC ([2]; evolved line 6)
2048: Relative MIC ([2]; evolved line 1) | Relative MIC ([2]; evolved line 4)
32: Relative MIC ([1]; ALE, E. coli NCTC 13846 (EC-MDR), evolved line 5) | Relative MIC ([1]; ALE, E. coli NCTC 13846 (EC-MDR), evolved line 10) | Relative MIC ([1]; EC-MDR (NCTC 13846), evolved line 5, evolved vs ancestor) | Relative MIC ([1]; EC-MDR (NCTC 13846), evolved line 10, evolved vs ancestor) | Relative MIC ([1]; Escherichia coli NCTC 13846 (EC-MDR), evolved line 5) | Relative MIC ([1]; Escherichia coli NCTC 13846 (EC-MDR), evolved line 10)
2.408 log10: Relative MIC (log10) ([1]; EC-SEN (Escherichia coli ATCC 25922), evolved line 4) | Relative MIC (log10) ([1]; EC-SEN (Escherichia coli ATCC 25922), evolved line 9)
4 µg/mL: MIC of evolved line ([1]; EC-SEN (ATCC 25922), evolved line 10)
128 µg/mL: MIC of evolved line ([1]; EC-MDR NCTC 13846, evolved line 5) | MIC of evolved line ([1]; EC-MDR NCTC 13846, evolved line 10) | MIC of evolved line ([1]; EC-SEN (ATCC 25922), evolved line 1) | MIC of evolved line ([1]; EC-SEN (ATCC 25922), evolved line 3) | MIC of evolved line ([1]; EC-SEN (ATCC 25922), evolved line 6)
128: Relative MIC ([1]; ALE, E. coli ATCC 25922 (EC-SEN), evolved line 5) | Relative MIC ([1]; ALE, E. coli ATCC 25922 (EC-SEN), evolved line 8) | Relative MIC ([1]; EC-SEN (ATCC 25922), evolved line 5, evolved vs ancestor) | Relative MIC ([1]; EC-SEN (ATCC 25922), evolved line 8, evolved vs ancestor) | Relative MIC ([1]; Escherichia coli ATCC 25922 (EC-SEN), evolved line 5) | Relative MIC ([1]; Escherichia coli ATCC 25922 (EC-SEN), evolved line 8)
1.204 log10: Relative MIC (log10) ([1]; EC-MDR (Escherichia coli NCTC 13846), evolved line 2) | Relative MIC (log10) ([1]; EC-MDR (Escherichia coli NCTC 13846), evolved line 4) | Relative MIC (log10) ([1]; EC-MDR (Escherichia coli NCTC 13846), evolved line 8) | Relative MIC (log10) ([1]; EC-MDR (Escherichia coli NCTC 13846), evolved line 9)
1.505 log10: Relative MIC (log10) ([1]; EC-MDR (Escherichia coli NCTC 13846), evolved line 10)
64 µg/mL: MIC of evolved line ([1]; EC-MDR (NCTC 13846), evolved line 2) | MIC of evolved line ([1]; EC-MDR (NCTC 13846), evolved line 4) | MIC of evolved line ([1]; EC-MDR NCTC 13846, evolved line 3) | MIC of evolved line ([1]; EC-MDR NCTC 13846, evolved line 8) | MIC of evolved line ([1]; EC-MDR NCTC 13846, evolved line 9) | MIC of evolved line ([1]; EC-SEN (ATCC 25922), evolved line 2) | MIC of evolved line ([1]; EC-SEN (ATCC 25922), evolved line 4) | MIC of evolved line ([1]; EC-SEN (ATCC 25922), evolved line 7) | MIC of evolved line ([1]; EC-SEN (ATCC 25922), evolved line 9)
256: Relative MIC ([1]; ALE, E. coli ATCC 25922 (EC-SEN), evolved line 2) | Relative MIC ([1]; ALE, E. coli ATCC 25922 (EC-SEN), evolved line 4) | Relative MIC ([1]; ALE, E. coli ATCC 25922 (EC-SEN), evolved line 7) | Relative MIC ([1]; ALE, E. coli ATCC 25922 (EC-SEN), evolved line 9) | Relative MIC ([1]; EC-SEN (ATCC 25922), evolved line 2, evolved vs ancestor) | Relative MIC ([1]; EC-SEN (ATCC 25922), evolved line 4, evolved vs ancestor) | Relative MIC ([1]; EC-SEN (ATCC 25922), evolved line 7, evolved vs ancestor) | Relative MIC ([1]; EC-SEN (ATCC 25922), evolved line 9, evolved vs ancestor) | Relative MIC ([1]; Escherichia coli ATCC 25922 (EC-SEN), evolved line 2) | Relative MIC ([1]; Escherichia coli ATCC 25922 (EC-SEN), evolved line 4) | Relative MIC ([1]; Escherichia coli ATCC 25922 (EC-SEN), evolved line 7) | Relative MIC ([1]; Escherichia coli ATCC 25922 (EC-SEN), evolved line 9)

Source: PMC11845477, “Exploring the principles behind antibiotics with limited resistance” (Nature Communications, 2025)
